According to ChEMBL document CHEMBL3352097, “Small molecule inhibitors targeting activator protein 1 (AP-1)” (J Med Chem, 2014):
pEC50, pIC50: −log10 of the molar value.

Legend:
[1] = biological target: T1, Retinoic acid receptor alpha (Homo sapiens, UniProt P10276); assay: Activity at RARalpha (unknown origin)
T1 sequence (P10276 whole entry): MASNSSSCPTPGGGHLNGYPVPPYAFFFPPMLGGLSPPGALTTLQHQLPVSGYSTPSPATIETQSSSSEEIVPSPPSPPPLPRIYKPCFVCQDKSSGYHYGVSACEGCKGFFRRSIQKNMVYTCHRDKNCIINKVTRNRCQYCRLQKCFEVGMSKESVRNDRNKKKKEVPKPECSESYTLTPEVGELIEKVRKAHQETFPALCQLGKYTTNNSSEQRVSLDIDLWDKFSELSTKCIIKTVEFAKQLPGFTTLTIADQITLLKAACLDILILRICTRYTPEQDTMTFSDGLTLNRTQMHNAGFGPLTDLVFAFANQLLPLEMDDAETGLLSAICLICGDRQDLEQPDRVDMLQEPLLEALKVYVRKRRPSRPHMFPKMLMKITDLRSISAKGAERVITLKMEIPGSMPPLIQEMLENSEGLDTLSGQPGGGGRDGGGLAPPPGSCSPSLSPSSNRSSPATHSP

[2] = biological target: T2, Retinoic acid receptor RXR-alpha (Homo sapiens, UniProt P19793); assay: Activity at RXRalpha (unknown origin)
T2 sequence (P19793 whole entry): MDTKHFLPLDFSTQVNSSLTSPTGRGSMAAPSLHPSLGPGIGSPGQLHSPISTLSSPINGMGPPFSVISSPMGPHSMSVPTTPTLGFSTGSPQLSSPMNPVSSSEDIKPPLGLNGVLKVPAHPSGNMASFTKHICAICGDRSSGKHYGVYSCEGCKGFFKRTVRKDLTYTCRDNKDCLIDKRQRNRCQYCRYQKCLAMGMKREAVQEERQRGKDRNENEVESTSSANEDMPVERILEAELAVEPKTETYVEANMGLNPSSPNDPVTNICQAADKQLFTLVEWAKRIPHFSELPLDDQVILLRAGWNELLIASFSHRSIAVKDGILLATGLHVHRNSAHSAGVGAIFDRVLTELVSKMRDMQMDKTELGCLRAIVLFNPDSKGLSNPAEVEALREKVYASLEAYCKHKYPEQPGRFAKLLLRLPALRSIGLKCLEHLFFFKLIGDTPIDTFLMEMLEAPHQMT

[3] = biological target: T3, Retinoic acid receptor beta (Homo sapiens, UniProt P10826); assay: Activity at RARbeta (unknown origin)
T3 sequence (P10826 whole entry): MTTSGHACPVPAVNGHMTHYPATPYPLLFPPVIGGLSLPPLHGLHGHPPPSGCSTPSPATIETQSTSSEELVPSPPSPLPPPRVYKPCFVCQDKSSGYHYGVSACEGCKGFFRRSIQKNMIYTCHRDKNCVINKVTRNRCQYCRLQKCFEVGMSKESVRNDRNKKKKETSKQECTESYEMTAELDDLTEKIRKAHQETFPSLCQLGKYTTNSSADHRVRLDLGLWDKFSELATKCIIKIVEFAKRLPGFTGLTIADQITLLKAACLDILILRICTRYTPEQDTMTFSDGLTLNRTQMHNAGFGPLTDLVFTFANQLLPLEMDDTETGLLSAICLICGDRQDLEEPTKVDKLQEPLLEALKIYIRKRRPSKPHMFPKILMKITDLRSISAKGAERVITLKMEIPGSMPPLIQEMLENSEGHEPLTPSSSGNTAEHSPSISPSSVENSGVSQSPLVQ

[4] = biological target: T4, Retinoic acid receptor gamma (Homo sapiens, UniProt P13631); assay: Activity at RARgamma (unknown origin)
T4 sequence (P13631 whole entry): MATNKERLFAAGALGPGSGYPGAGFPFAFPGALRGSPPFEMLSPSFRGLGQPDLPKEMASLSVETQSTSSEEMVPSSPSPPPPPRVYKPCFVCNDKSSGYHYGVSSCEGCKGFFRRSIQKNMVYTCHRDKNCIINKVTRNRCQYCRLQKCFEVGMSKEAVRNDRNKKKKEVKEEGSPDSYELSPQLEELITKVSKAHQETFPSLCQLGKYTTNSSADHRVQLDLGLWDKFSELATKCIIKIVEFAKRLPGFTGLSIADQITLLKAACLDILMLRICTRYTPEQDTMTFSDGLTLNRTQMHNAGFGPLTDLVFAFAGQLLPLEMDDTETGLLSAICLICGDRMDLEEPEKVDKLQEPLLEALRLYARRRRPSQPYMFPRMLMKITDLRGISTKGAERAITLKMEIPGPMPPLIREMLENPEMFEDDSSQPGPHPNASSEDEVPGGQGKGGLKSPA

[5] = system: Rattus norvegicus; assay: Antiinflammatory activity in carrageenan injection-induced rat inflammation model assessed as inhibition of rat paw edema; format: functional
[6] = biological target: Transcription factor Jun (Homo sapiens, UniProt P05412); assay: Inhibition of AP-1-mediated transcriptional activation in HEK293 cells by luciferase reporter gene assay; format: cell-based
Sequence of Transcription factor Jun (P05412 whole entry): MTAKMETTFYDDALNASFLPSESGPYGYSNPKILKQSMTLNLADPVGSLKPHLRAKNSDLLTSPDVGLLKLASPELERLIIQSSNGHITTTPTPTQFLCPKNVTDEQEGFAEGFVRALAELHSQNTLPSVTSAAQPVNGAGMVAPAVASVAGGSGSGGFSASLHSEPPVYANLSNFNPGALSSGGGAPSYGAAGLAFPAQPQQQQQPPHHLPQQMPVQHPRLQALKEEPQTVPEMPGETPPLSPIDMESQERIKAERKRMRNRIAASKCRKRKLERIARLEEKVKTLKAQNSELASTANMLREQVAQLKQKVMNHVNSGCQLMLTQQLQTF

SMILES | pEC50 [1] | pEC50 [2] | pEC50 [3] | pEC50 [4] | inhibition (INH) [5] [%] | pIC50 [6]
CC1=C(/C=C/C(=C/C=C/C(C)=C/C(=O)O)c2ccc(C)cc2)C(C)(C)CCC1 | < 6.00 | < 6.00 | < 6.00 | < 6.00 |  | 
CNc1nc(-c2ccccc2)c(-c2nc3ccccc3c(=O)n2-c2ccccc2OC)s1 |  |  |  |  | 56 | 6.30
